{"source": "paper PMC5741288", "about": "(Pain Reports, 2016)", "origin": "cited, not measured here", "test_system": "complete Freund's adjuvant–evoked thermal hyperalgesia", "settings": "rat; cited from earlier work"}
{"smiles": "CC(C)(O)c1ccccc1-c1ccc2[nH]c(/C=C/c3ccc(C(F)(F)F)cc3)nc2c1", "note": "[JNJ-39439335, trans-2-(2-{2-[2-(4-Trifluoromethyl-phenyl)-vinyl]-1H-benzimidazol-5-yl}-phenyl)-propan-2-ol]", "values": [{"measurement": "Complete Freund's adjuvant–evoked thermal hyperalgesia", "value": "significantly attenuated"}]}
